# Patent publication US5770573A, “CS-1 peptidomimetics, compositions and methods of using the same” (Cytel Corporation, priority 1995, dated 1998)
# Square brackets hold non-standard residues; d marks the D form. Peptide text beside a SMILES is read from it. * marks the point of attachment. Acetyl(3-pyridyl) = O=C(Cc1cccnc1)*; Cya = N[C@@H](CS(=O)(=O)O)C(=O)O; Isonicotinoyl = O=C(c1ccncc1)*; Morpholide = C1CN(*)CCO1; Piperidide = C1CCN(*)CC1; Pyrrolidide = C1CCN(*)C1; PhAc = O=C(Cc1ccccc1)*; NHBn = c1ccc(CN*)cc1; OtBu = CC(C)(C)O*; tBu = CC(C)(C)*
# Target: VLA-4 (Homo sapiens, UniProt P05556+P13612)
# Sequence (P13612 34-1032): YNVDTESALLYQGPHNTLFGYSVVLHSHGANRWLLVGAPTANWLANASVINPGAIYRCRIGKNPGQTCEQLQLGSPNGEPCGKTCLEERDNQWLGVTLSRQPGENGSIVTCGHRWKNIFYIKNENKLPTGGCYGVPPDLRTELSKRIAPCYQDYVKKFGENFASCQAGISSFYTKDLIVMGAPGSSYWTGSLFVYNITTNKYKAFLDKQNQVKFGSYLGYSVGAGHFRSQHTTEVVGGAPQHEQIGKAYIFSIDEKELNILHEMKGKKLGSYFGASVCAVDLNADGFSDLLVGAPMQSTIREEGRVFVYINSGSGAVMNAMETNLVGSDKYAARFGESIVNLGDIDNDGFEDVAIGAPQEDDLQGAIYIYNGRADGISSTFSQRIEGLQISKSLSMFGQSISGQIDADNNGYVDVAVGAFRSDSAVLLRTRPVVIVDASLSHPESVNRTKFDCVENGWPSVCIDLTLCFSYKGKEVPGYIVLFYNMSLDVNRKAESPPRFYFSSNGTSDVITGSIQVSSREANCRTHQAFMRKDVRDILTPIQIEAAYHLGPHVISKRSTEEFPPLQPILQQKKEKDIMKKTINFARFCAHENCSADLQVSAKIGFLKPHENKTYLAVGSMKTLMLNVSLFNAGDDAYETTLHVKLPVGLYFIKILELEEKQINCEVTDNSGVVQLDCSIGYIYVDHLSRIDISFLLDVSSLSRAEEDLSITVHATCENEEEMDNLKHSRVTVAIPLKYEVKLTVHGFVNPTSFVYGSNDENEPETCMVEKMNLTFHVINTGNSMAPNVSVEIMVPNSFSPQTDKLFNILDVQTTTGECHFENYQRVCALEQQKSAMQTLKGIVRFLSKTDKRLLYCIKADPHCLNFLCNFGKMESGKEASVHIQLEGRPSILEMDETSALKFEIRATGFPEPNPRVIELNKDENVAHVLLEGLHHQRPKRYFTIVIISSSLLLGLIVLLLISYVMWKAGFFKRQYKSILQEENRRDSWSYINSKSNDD
# Sequence (P05556 21-798): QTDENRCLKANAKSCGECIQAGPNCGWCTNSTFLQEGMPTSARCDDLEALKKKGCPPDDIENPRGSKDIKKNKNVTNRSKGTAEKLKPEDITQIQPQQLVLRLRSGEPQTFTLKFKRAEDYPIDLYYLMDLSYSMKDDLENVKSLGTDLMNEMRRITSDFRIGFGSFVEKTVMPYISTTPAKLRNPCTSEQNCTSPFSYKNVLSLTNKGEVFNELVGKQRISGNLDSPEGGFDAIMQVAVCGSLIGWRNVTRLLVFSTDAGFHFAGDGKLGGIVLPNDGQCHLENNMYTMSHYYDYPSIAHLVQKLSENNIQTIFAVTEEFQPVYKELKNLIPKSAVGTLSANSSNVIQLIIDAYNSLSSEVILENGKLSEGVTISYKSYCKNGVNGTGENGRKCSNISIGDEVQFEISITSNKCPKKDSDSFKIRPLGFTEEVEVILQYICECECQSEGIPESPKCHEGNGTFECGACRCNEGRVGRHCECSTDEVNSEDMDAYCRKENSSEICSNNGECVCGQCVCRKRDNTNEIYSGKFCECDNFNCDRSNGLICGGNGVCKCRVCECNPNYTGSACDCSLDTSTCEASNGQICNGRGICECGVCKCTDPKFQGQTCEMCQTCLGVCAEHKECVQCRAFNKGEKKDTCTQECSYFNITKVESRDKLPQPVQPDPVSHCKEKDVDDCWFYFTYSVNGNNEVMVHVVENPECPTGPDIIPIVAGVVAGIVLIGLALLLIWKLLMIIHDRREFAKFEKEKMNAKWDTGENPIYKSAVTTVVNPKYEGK
# Assay: In vitro binding inhibition of 51Cr-labeled Jurkat cells to solid phase-bound CS-1 compound (SEQ ID NO:1)
# Type: cell-based
# Set-up: inflammatory cells that contain the VLA-4 receptor [Jurkat cells; host or cells: Jurkat (human T lymphoblastic line)
# Settings: not given
# Protocol: Binding inhibition is measured here as a concentration of compound that inhibits one-half the binding between a standard number of Jurkat cells and a standard amount of CS-1 compound bound to the surface of a microtiter plate well. Those concentrations are conveniently expressed as IC50 values, smaller numbers indicating a lower concentration required to inhibit 50 percent binding and therefore greater potency. Further specifics of this assay are provided hereinafter.
# Jurkat cells (ATCC TIB 152), a human T lymphoblastic line, labeled with ^51 chromium were used to assay in vitro binding inhibition provided by various compounds discussed herein.
# The plates were prepared as follows: The 25-mer CS-1 compound (SEQ ID NO:1) dissolved at 0.5-1 μg/ml in a buffer of 0.1M NaHCO3 at pH 9.5 that also contained 10 μg/ml of bovine serum albumin (BSA) or a conjugate of the CS-1 compound linked to […] (CS-1-OVA) dissolved at 1-2.5 μg/ml in the same buffer was used as the substrate. Each well of the microtiter plates was coated with 50 μl of substrate or buffer alone for controls. The wells were permitted to dry out completely and were then rinsed twice with PBS at pH 7.4. Non-specific binding sites of each well were then blocked using 200 μl per well of RPMI/1 percent BSA for two hours at room temperature.
# Jurkat cells (3-5×10^6 cells) were placed into a 15 ml Falcon™ round-bottom tube with a cap. The tube was centrifuged, and the extra medium was then removed.
# Two hundred microliters of a ^51 Cr labeling solution were added to the centrifuged cells and maintained in contact with the cells for 90-120 minutes in a warm room. […] Longer contact times provide a greater amount of labeling but lower cell viability.
# The labeled cells are washed with (i) complete medium, (ii) 1 mM EDTA/PBS and then (iii) RPM1/1 percent BSA free of serum components. The cells are centrifuged after each washing. The cells are finally resuspended in serum-free RPMI/1 percent BSA at a concentration of 1×10^6 viable cells/ml, which provides a concentration that is diluted by one-half in the assay.
# Inhibitor compounds are prepared as stock solutions at 20 mg/ml in DMSO in 1.5 ml cryogenic screwcap vials, and were stored at -70° C. Using Flow™ round-bottom or V-bottom microtiter plates, the inhibitor compounds were prepared at twice the assay concentration in RPMI/1 percent BSA at 60 μl/well.
# Four initial dilutions were typically used.
# The ^51 Cr-labeled cells ([…] at 60 μl/well) were then admixed with the diluted compound solutions. The admixtures were maintained at room temperature (about 22° C.) for 30 minutes.
# One hundred microliters of each inhibitor compound/cell admixture were transferred to the substrate-coated wells. This was done in triplicate for each dilution. The resulting plates were incubated for 30 minutes at 37° C. and then washed gently three times with RPMI/1 percent BSA at 200 μl/well. Binding was observed microscopically, particularly after the second wash.
# The bound cells were then lysed by the addition of a 0.5 percent solution of sodium dodecylsulfate in water at 100 μl/well. The resulting solutions were then processed for counting and calculation of IC50 values following usual procedures.
# The data of Table 1 are normalized to the binding of SEQ ID NO: 3. […] Multiple assays for the same compound were averaged.
row,Structure (SMILES),Relative Potency
1,CC(C)C[C@H](NC(=O)c1ccncc1)C(=O)N[C@@H](CC(=O)O)C(=O)N[C@@H](Cc1ccccc1)C(=O)N1CCC[C@@H]1C(N)=O [951.20] (Isonicotinoyl-LDF[dP]-NH2),228
2,CC(C)C[C@H](NC(=O)Cc1cccnc1)C(=O)N[C@@H](CC(=O)O)C(=O)N[C@@H](Cc1ccccc1)C(=O)N1CCC[C@@H]1C(N)=O [951.22] ({Acetyl(3-pyridyl)}-LDF[dP]-NH2),387
3,CC(=O)N[C@@H](Cc1ccccc1)C(=O)N[C@@H](CC(C)C)C(=O)N[C@@H](CC(=O)O)C(=O)N[C@@H](Cc1ccccc1)C(=O)N1CCC[C@@H]1C(N)=O [951.42] (Ac-FLDF[dP]-NH2),35.4
4,CC(=O)N[C@@H](CO)C(=O)N[C@@H](Cc1ccccc1)C(=O)N[C@@H](CC(=O)O)C(=O)N[C@@H](Cc1ccccc1)C(=O)N[C@@H](CO)C(N)=O [951.46] (Ac-SFDFS-NH2),.22
5,CC(C)CN1C(=O)C(NC(=O)N[C@@H](CC(=O)O)C(=O)N[C@@H](Cc2ccccc2)C(=O)N2CCC[C@@H]2C(N)=O)Cc2ccccc21 (stereo partly shown) [1014.01],1.22
6,CC(C)C[C@H](NC(=O)Cc1ccc(O)c(O)c1)C(=O)N[C@@H](CC(=O)O)C(=O)N[C@@H](Cc1ccccc1)C(=O)N1CCCCC1 [1019.01],81.4
7,CC(C)CN(CC(C)C)C(=O)N[C@@H](CC(=O)O)C(=O)N[C@H](C(=O)N1CCCCC1)c1ccccc1 [1027.01],.5
8,CC(C)CN(CCCc1ccccc1)C(=O)N[C@@H](CC(=O)O)C(=O)N[C@@H](Cc1ccccc1)C(=O)N1CCCCC1 [1027.02],0
9,O=C(O)C[C@H](NC(=O)N(Cc1ccccc1)Cc1ccccc1)C(=O)N[C@@H](Cc1ccccc1)C(=O)N1CCCCC1 [1027.03],0
10,CC(C)COC(=O)N[C@@H](CC(=O)O)C(=O)N[C@@H](Cc1ccccc1)C(=O)N1CCCCC1 [1027.04],0
11,CC(C)CN(CC(=O)Nc1ccccc1)C(=O)CN(CC(=O)O)C(=O)CNC(=O)C1CCCC1 [1032.01],.42
12,CC(C)C[C@H](NCc1ccccc1)C(=O)N[C@@H](CC(=O)O)C(=O)N[C@@H](Cc1ccccc1)C(=O)N1CCCCC1 [1033.01],5.84
13,CC(C)CC(C(=O)NCc1ccccc1)C(=O)N[C@@H](CC(=O)O)C(=O)N[C@@H](Cc1ccccc1)C(=O)N1CCC[C@@H]1C(N)=O (stereo partly shown) [1034.01],1.96
14,CC(C)CC(C(=O)NCc1ccccc1)C(=O)N[C@@H](CC(=O)O)C(=O)N[C@@H](Cc1ccccc1)C(=O)N1CCCCC1 (stereo partly shown) [1034.02],0

# Same assay, conditions: binding inhibition potency relative to standard compound of SEQ ID NO:3 = 1 (normalized IC50); about one-tenth or less assigned zero
row,Structure (SMILES),Relative Potency
1,CC(C)C[C@H](NC(=O)Cc1ccccc1)C(=O)N[C@@H](CC(=O)O)C(=O)N[C@@H](Cc1ccccc1)C(=O)N1CCCCC1 [951.14] (PhAc-Leu-Asp-Phe-Piperidide),239
2,CC(C)C[C@H](NC(=O)Cc1ccccc1)C(=O)N[C@@H](CC(=O)O)C(=O)N[C@@H](Cc1ccccc1)C(=O)N1CCCC1 [951.15] (PhAc-Leu-Asp-Phe-Pyrrolidide),121
3,CC(C)C[C@H](NC(=O)Cc1ccccc1)C(=O)N[C@@H](CC(=O)O)C(=O)N[C@@H](Cc1ccccc1)C(=O)N1CCC[C@H]1CO [951.17],163
4,O=C(O)C[C@H](NC1CCN(C(=O)Cc2ccccc2)CC1)C(=O)N[C@@H](Cc1ccccc1)C(=O)N1CCCC1 [992.01],0
5,CC(C)C[C@H](NC(=O)Cc1ccccc1)C(=O)N[C@@H](CC(=O)O)C(=O)NC(c1ccccc1)c1ccccc1 [997.01],2.66
6,CC(C)C[C@H](NC(=O)Cc1ccccc1)C(=O)N[C@@H](CC(=O)O)C(=O)NCc1ccccc1 [997.02] (PhAc-Leu-Asp-NHBn),18.8
7,CC(C)C[C@H](NC(=O)Cc1ccccc1)C(=O)N[C@@H](CC(=O)O)C(=O)NCCN1CCOCC1 [997.03],12.5
8,CC(C)C[C@H](NC(=O)Cc1ccccc1)C(=O)N[C@@H](CC(=O)O)C(=O)NC1Cc2ccccc2NC1=O (stereo partly shown) [997.08],23.5
9,CC(C)C[C@H](NC(=O)Cc1ccccc1)C(=O)N[C@@H](CC(=O)O)C(=O)N1CCc2ccccc2C1 [997.09],3.13
10,CC(C)C[C@H](NC(=O)Cc1ccccc1)C(=O)N[C@@H](CC(=O)O)C(=O)NC1Cc2ccccc2N(CC(C)C)C1=O (stereo partly shown) [997.10],6.26
11,CC(C)C[C@H](NC(=O)Cc1ccccc1)C(=O)N[C@@H](CC(=O)O)C(=O)NC1Cc2ccccc2N(CC(N)=O)C1=O (stereo partly shown) [997.11],44.8
12,CC(C)C[C@H](NC(=O)Cc1ccccc1)C(=O)N[C@@H](CC(=O)O)C(=O)N[C@@H](Cc1ccccc1)C(N)=O [997.12] (PhAc-Leu-Asp-Phe-NH2),.45
13,CC(C)C[C@H](NC(=O)Cc1ccccc1)C(=O)N[C@@H](CC(=O)O)C(=O)NNC(=O)OC(C)(C)C [997.13],1.57
14,CC(C)C[C@H](NC(=O)Cc1ccccc1)C(=O)N[C@@H](CC(=O)O)C(=O)NN(Cc1ccccc1)C(=O)C1CCCC1 [997.15],1.28
15,CC(C)C[C@H](NC(=O)Cc1ccccc1)C(=O)N[C@@H](CC(=O)O)C(=O)NCC(=O)N1CCOCC1 [997.16] (PhAc-Leu-Asp-Gly-Morpholide),9.23
16,CC(C)C[C@H](NC(=O)Cc1ccccc1)C(=O)N[C@@H](CC(=O)O)C(=O)NN1Cc2ccccc2NC1=O [997.17],1.35
17,CC(C)C[C@H](NC(=O)Cc1ccccc1)C(=O)N[C@@H](CC(=O)O)C(=O)NC1Cc2ccccc2N(CCN2CCOCC2)C1=O (stereo partly shown) [997.18],20
18,CC(C)C[C@H](NC(=O)Cc1ccccc1)C(=O)N[C@@H](CC(=O)O)C(=O)N[C@@H](CC(C)C)C(=O)N1CCOCC1 [997.20] (PhAc-Leu-Asp-Leu-Morpholide),291
19,CC(C)C[C@H](NC(=O)Cc1ccccc1)C(=O)NC(CC(=O)O)(CC(=O)O)C(=O)N[C@@H](Cc1ccccc1)C(=O)N1CCCCC1 [1026.01],0
20,CC(C)C[C@H](NC(=O)Cc1ccccc1)C(=O)NC(C(=O)O)C(=O)N[C@@H](Cc1ccccc1)C(=O)N1CCCCC1 (stereo partly shown) [1026.02],0
21,CC(C)C[C@H](NC(=O)Cc1ccccc1)C(=O)NC(C(=O)N[C@@H](Cc1ccccc1)C(=O)N1CCCCC1)C(C(=O)O)C(=O)O (stereo partly shown) [1026.04],2.32
22,CC(C)C[C@H](NC(=O)Cc1ccccc1)C(=O)N[C@@H](CC(=O)O)C(=O)N[C@H]1Cc2ccccc2[C@H]2CCCCN2C1=O [1026.05],50.1
23,CC(C)C[C@H](NC(=O)Cc1ccccc1)C(=O)N[C@@H](CS(=O)(=O)O)C(=O)N[C@@H](Cc1ccccc1)C(=O)N1CCCCC1 [1026.06] (PhAc-Leu-[Cya]-Phe-Piperidide),0
24,CC(C)C[C@H](NC(=O)Cc1ccccc1)C(=O)N[C@@H](CP(=O)(O)O)C(=O)N[C@@H](Cc1ccccc1)C(=O)N1CCCCC1 [1026.07],0
25,CC(C)C[C@H](NC(=O)Cc1ccccc1)C(=O)N[C@@H](CS(N)(=O)=O)C(=O)N[C@@H](Cc1ccccc1)C(=O)N1CCCCC1 [1026.08],0
26,CC(C)CN(CC(=O)Nc1ccccc1)C(=O)CN(CC(=O)O)C(=O)CN(Cc1ccccc1)C(=O)C1CCCC1 [1032.02],.63
27,CC(C)C[C@H](NC(=O)Cc1ccccc1)C(=O)N[C@@H](CC(=O)O)C(=O)N[C@@H](Cc1ccc(O)cc1)C(=O)N1CCC[C@H]1C(N)=O [1036.01] (PhAc-LDYP-NH2),405
28,CC(C)C[C@H](NC(=O)Cc1ccccc1)C(=O)N[C@@H](CC(=O)O)C(=O)N[C@@H](Cc1ccc(OC(C)(C)C)cc1)C(=O)OC(C)(C)C [1040.01] (PhAc-Leu-Asp-Tyr(tBu)-OtBu),2.66
29,CC(C)C[C@H](NC(=O)Cc1ccccc1)C(=O)N[C@@H](CC(=O)O)C(=O)N[C@@H](Cc1ccc(O)cc1)C(=O)OC(C)(C)C [1040.02] (PhAc-Leu-Asp-Tyr-OtBu),14.7
